Test results as given in patent US20100093820A1, “CRYSTALLINE PYRAZOLES” (PHARMACIA & UPJOHN COMPANY LLC, priority 2004, published 2010).

Columns and labels:
[1] = Suspension crystallization: relative thermodynamic stability of Forms I and II; format: physicochemical; conditions: mixture of Forms I and II suspended in toluene, stirred at least three days, solid identified by PXRD
Experimental: Methods. Suspension crystallization. The relative stability relationship between Forms I and II at a specific temperature was bracketed by suspending a mixture of the two polymorphs in toluene in a closed glass vial that was equilibrated at the temperature of interest. Excess solid of one polymorph was first added to saturate toluene in a glass vial at the chosen temperature. The other polymorph was added at least half an hour later. The suspension was stirred continuously for at least three days. A portion of the suspension was withdrawn and immediately filtered. The filtered solid was analyzed using PXRD to identify the equilibrium solid at that temperature. […] By repeating the experiment at different temperatures, the Tt was bracketed.
Suspension Crystallization. […] The Tt must be approximately 70 to about 73° C.

[2] = Relative stability of crystal forms at ambient temperature and pressure; format: physicochemical
From the text: has been described in U.S. Pat. Nos. 5,466,823 and 5,521,207. The description describes a synthesis of the compound, but is silent with respect to the crystalline form which is obtained. […] The forms can be distinguished by their PXRD (powder X-ray diffraction) patterns.

Row | temperature at which the form is thermodynamically more stable (equilibrium solid phase) [1] | SMILES | stability of crystal form relative to the other form [2]
1 | ≤ 71.0 °C | NS(=O)(=O)c1ccc(-n2nc(C(F)(F)F)cc2-c2ccc(F)cc2)cc1 [Form I, 4-[5-(4-fluorophenyl)-3-(trifluoromethyl)-1H-pyrazol-1-yl]-benzenesulfonamide] | 
2 | ≥ 71.5 °C | NS(=O)(=O)c1ccc(-n2nc(C(F)(F)F)cc2-c2ccc(F)cc2)cc1 [Form II, 4-[5-(4-fluorophenyl)-3-(trifluoromethyl)-1H-pyrazol-1-yl]-benzenesulfonamide] | unstable with respect to another form, Form I
